Results on four molecules are retold here after patent US8076341B2, “Compounds and use thereof” (Vironova AB, priority 2007, dated 2011).

One series relates to HCMV. Briefly: Test of inhibition of HCMV assembly and egress (modified plaque assay, 3 and 5 dpi). It counts as cell-based, human cytomegalovirus. Conditions: left until 7 dpi, infected human lung fibroblast cells, IE staining; for Inhibition 3 dpi (%): agent added 3 dpi; for Inhibition 5 dpi (%): agent added 5 dpi.
Series [1] concerns infected and uninfected human lung fibroblasts. The series is described as follows: Toxicity by propidium iodide staining of cell cultures. It counts as cell-based. Conditions: method and source not stated. The method, then: The concentrations of compounds used in the viral experiments were at the μM level. Cellular toxicity for B-220 has been shown for concentrations above 100 μM.

Series [2] deals with human cytomegalovirus (HCMV) strain AD169 and TB 40. It counts as cell-based. To be noted: human lung fibroblasts, IE staining.

SMILES strings stand for the structures.

Consider `Cc1cc2nc3c4ccccc4n(CCN(C)C)c3nc2cc1C` [B-220, 2,3-dimethyl-6-(N,N-dimethylaminoethyl)-6H-indolo(2,3-b)quinoxaline], for which, in the series with HCMV, the “Inhibition 3 dpi (%)” value was 65-85% and the “Inhibition 5 dpi (%)” value is on record as 65-80%. Further, the “concentrations at which cellular toxicity has been shown” value in series [1] is “above 100 μM”. Moreover, the “Inhibitory effect (%) as % inhibition of infection” value (“Inhibitory effect (%)” below) in series [2] is reported as 20%.

As for `O=C(O)P(=O)(O)O` [Foscavir], in the series on HCMV, the “Inhibition 3 dpi (%)” value is 85-100% and the “Inhibition 5 dpi (%)” value is reported as 65-85%. For the same molecule, the “Inhibitory effect (%)” value in series [2] was 20-50%.

For `Nc1nc(O)c2ncn(COC(CO)CO)c2n1` [Ganciclovir], in the series on HCMV, the “Inhibition 3 dpi (%)” value is 100% and the “Inhibition 5 dpi (%)” value is 80-95%. Besides, the “Inhibitory effect (%)” value in series [2] was 20-30%.

As to `Cc1oncc1C(=O)Nc1ccc(C(F)(F)F)cc1` [Leflunomide], in the series on HCMV, the “Inhibition 3 dpi (%)” value is 65-80% and the “Inhibition 5 dpi (%)” value was 80-90%. In addition, the “Inhibitory effect (%)” value in series [2] is on record as 25-50%.
